pIC50: −log10 of the molar value.
Target: Tryptophan--tRNA ligase (Mycobacterium tuberculosis (strain ATCC 25618 / H37Rv), UniProt P9WFT3)
Assay: Biochemical assay for Mt-TrpRS
Type: functional

Tryptophan--tRNA ligase, sequence (P9WFT3 whole entry): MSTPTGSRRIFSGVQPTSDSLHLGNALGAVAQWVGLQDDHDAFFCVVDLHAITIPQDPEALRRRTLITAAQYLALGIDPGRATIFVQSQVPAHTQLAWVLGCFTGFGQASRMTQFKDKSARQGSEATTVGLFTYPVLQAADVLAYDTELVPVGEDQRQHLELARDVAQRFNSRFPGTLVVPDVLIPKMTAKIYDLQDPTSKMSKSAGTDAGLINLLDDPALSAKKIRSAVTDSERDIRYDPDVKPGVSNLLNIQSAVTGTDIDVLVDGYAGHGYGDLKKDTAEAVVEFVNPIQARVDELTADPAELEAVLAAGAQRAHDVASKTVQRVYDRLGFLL

| SMILES | pIC50 |
| --- | --- |
| CNC(=O)c1cc2ccccc2n1C | < 3.71 |
| COc1ccc(C(=O)Nc2cccc(SC)c2)c(OC)n1 | < 3.71 |
| CCCNc1ccc(C(=O)NCCc2cccc(OC)c2)cn1 | < 3.71 |
| O=C(NCCCn1ccnc1)c1cccnc1OCC(F)(F)F | < 3.71 |
| O=C(NCCc1ccncc1)c1cccnc1OCC(F)(F)F | < 3.71 |
| O=C(c1cccnc1Oc1ccc(Cl)cc1)N1CC[C@@H](O)C1 | < 3.71 |
| N#Cc1cnc(N2CCC3(CC2)OCCO3)nc1N | < 3.71 |
| CC(=O)N1N=C(c2ccccc2)OC1C(=O)NCCc1cccc(F)c1 (centres undefined) | < 3.71 |
| CC(C)c1ccc(-n2ncc(C(=O)NCC3COC(C)(C)O3)c2N)cc1 (centres undefined) | < 3.71 |
| CC(=O)N1N=C(c2cccs2)OC1C(=O)NCCc1cccc(Cl)c1 (centres undefined) | < 3.71 |
| CCOC(=O)CNC(=O)C1OC(c2ccccc2)=NN1C(C)=O (centres undefined) | < 3.71 |
| Cc1cc(CN(C)CCC(O)c2ccccc2)no1 (centres undefined) | < 3.71 |
| Nc1c(N2CCCC2)ncnc1N1CCOCC1 | < 3.71 |
| CC(=O)c1cc2ncc(C(=O)NC3CC3)cc2[nH]1 | < 3.71 |
| CNC(=O)c1cnc2c(C)csc2c1 | < 3.71 |
| COc1c(C(=O)N2CCNC(=O)C2)cnc2c1c(C)nn2C | < 3.71 |
| Cn1c(C(=O)NCC2(N)CCCC2)cc2ccccc21 | < 3.71 |
| CC(C)(Oc1ccc(C(N)=O)cc1)C(=O)N(CCC#N)CC1CCCO1 (centres undefined) | < 3.71 |
| CC(C)(C)C(=O)CN1Cc2ccccc2NCCC1=O | < 3.71 |
| COc1ccc2c(c1)CN(Cc1ccco1)C(=O)CCN2 | < 3.71 |
| CCN1Cc2cc(F)ccc2N(CC(O)C(F)(F)F)CCC1=O (centres undefined) | < 3.71 |
| CC(C)CC(=O)N1CC(=O)N(Cc2ccco2)CC(O)C1 (centres undefined) | < 3.71 |
| CCCC1CN(CCOc2ccccc2)C(=O)c2cccnc2O1 (centres undefined) | < 3.71 |
| CCCC1CN(CC(C)C)C(=O)c2cccnc2O1 (centres undefined) | < 3.71 |
| CC(C)CN1C[C@H](COCc2ccccc2)Oc2ncccc2C1=O | < 3.71 |

| SMILES | pIC50 |
| --- | --- |
| O=C(c1ccco1)N1C(CO)[C@]2(O)CC[C@H]1CC2 (some centres undefined) | < 3.71 |
| O=S(=O)(c1ccccc1)N1C(CN2CCOCC2)[C@]2(O)CC[C@H]1CC2 (some centres undefined) | < 3.71 |
| CO[C@H]1CN(c2ccccc2)S(=O)(=O)[C@@]12CCN(Cc1ccccc1)C2 | < 3.71 |
| CC(O)CN1CCC(=O)N(Cc2ccccc2)Cc2ccccc21 (centres undefined) | < 3.71 |
| COCC(O)CN1CCC(=O)N(Cc2ccco2)Cc2ccccc21 (centres undefined) | < 3.71 |
| CCCC(O)CN1CC(C)(C)CN(C(=O)CCc2ccccc2)CC1=O (centres undefined) | < 3.71 |
| COc1ccccc1C(=O)N1CC(=O)N(CC2CC2)CC(O)C1 (centres undefined) | < 3.71 |
| O=C1CN(C(=O)c2cccc(C(F)(F)F)c2)CC(O)CN1CC1CC1 (centres undefined) | < 3.71 |
| N#CCCN1CC(O)CN(C(=O)c2cccc(C(F)(F)F)c2)CC1=O (centres undefined) | < 3.71 |
| O=C(C1CC1)N1CCN2C[C@@H](CO)[C@H](c3ccccc3)[C@H]2C1 | < 3.71 |
| COc1ccc2c3c1CN(C(C)=O)CC3=CC(C)(C)CO2 | < 3.71 |
| CC(C)CC(=O)N1CC(=O)N(CCc2ccccc2)CC(O)C1 (centres undefined) | < 3.71 |
| CC(C)(C)OC(=O)N1CC(=O)N(CCc2ccccc2)CC(O)C1 (centres undefined) | < 3.71 |
| CCS(=O)(=O)N1CC(=O)N(Cc2ccccc2OC)CC(O)C1 (centres undefined) | < 3.71 |
| COc1cccc(CN2CC(O)CN(C(=O)C(C)(C)C)CC2=O)c1OC (centres undefined) | < 3.71 |
| CCCS(=O)(=O)N1CC(=O)N(Cc2cccc(OC)c2OC)CC(O)C1 (centres undefined) | < 3.71 |
| COc1ccccc1CN1CC(O)CN(S(=O)(=O)C(C)C)CC1=O (centres undefined) | < 3.71 |
| COc1cccc(OC)c1CN1CC(O)CN(S(C)(=O)=O)CC1=O (centres undefined) | < 3.71 |
| COC1CN(C(=O)CC2CCCC2)CCC(=O)N(C)c2ccccc21 (centres undefined) | < 3.71 |
| O=C(CC1CC1)N1CCC2(CC1)C(=O)NCCN2Cc1ccccc1 | < 3.71 |
| COCCN(C)C(=O)c1nc2c(s1)CCCN2C | < 3.71 |
| CC(C)NC(=O)c1nc2c(s1)CCCN2C(C)C | < 3.71 |
| O=C([C@H]1COC[C@H]2CN(c3ccncn3)C[C@H]21)N1CCCC1 | < 3.71 |
| O=C1NCC[C@]12CN(Cc1ccco1)C[C@H]2c1ccccc1 | < 3.71 |
| Cn1cccc1CNC(=O)CCCc1nnc2ccccn12 | < 3.71 |

| SMILES | pIC50 |
| --- | --- |
| N#Cc1cn[nH]c1NCc1cc(Br)ccc1O | 4.50 |
| COc1cccc(CN2CC[C@H](NC(C)=O)[C@@H](O)CC2)c1F | < 3.71 |
| COc1cc(CN2CC[C@H](NC(C)=O)[C@@H](O)CC2)ccc1F | < 3.71 |
| COc1ccc(CN2CC[C@H](NC(C)=O)[C@@H](O)CC2)c(F)c1 | < 3.71 |
| CC(=O)N1CCCC1c1cccc(Cc2ccccc2Cl)n1 (centres undefined) | < 3.71 |
| Cc1nc(CCC(=O)NCC(N)=O)cc(C2CCNCC2)n1 | < 3.71 |
| NC(=O)C1(CCCc2ccccn2)CCCN(CCO)C1 (centres undefined) | < 3.71 |
| CC1(C(=O)N2CCOCC2)CN(Cc2ncc[nH]2)CCO1 (centres undefined) | < 3.71 |
| CC(=O)N1CCCC1c1cccc(Oc2ccccc2F)n1 (centres undefined) | < 3.71 |
| CN(Cc1ccc(F)cc1)CC1(O)CCN(C(=O)c2ccncc2)C1 (centres undefined) | < 3.71 |
| CC(=O)Nc1nc(C2CCN(C(=O)c3cncs3)CC2)cs1 | < 3.71 |
| CN1CCC(c2cccc(Cc3ccccc3)n2)CC1 | < 3.71 |
| CNC(=O)CCc1cc(C)nc(C2CCCCN2)n1 (centres undefined) | < 3.71 |
| NC(=O)C1(CCCc2ccccn2)CCCN(Cc2ccncc2)C1 (centres undefined) | < 3.71 |
| NC(=O)C1(CCCc2ccccn2)CCCN(Cc2ncc[nH]2)C1 (centres undefined) | < 3.71 |
| CN(CCc1ccccn1)C(=O)Nc1cc(C(F)(F)F)c[nH]c1=O | < 3.71 |
| NC(=O)Nc1cc(F)ccc1SCC(F)F | < 3.71 |
| Cc1cnn(-c2ccc(S(N)(=O)=O)cc2F)c1 | < 3.71 |
| Cc1ccc2c(c1C)OCC2NCc1ccc(C#N)cc1 (centres undefined) | < 3.71 |
| Cc1cccc(NCc2nc(C)ccc2O)c1 | 4.09 |
| CS(=O)(=O)NC1CCN(C(=O)NCC2CCCO2)CC1 (centres undefined) | < 3.71 |
| CC(=O)NC1CCCN(C(=O)CCc2cccnc2)C1 (centres undefined) | < 3.71 |
| Cc1ccc(S(=O)(=O)NCc2[nH]ncc2Br)cc1F | < 3.71 |
| CCOc1ccc(N(C)Cc2nnc(C)o2)cc1 | < 3.71 |
| Cc1ccc(CNC(=O)c2ccc(CNS(C)(=O)=O)o2)cc1F | < 3.71 |

| SMILES | pIC50 |
| --- | --- |
| CCOCC(O)CNc1cncc(Br)c1 (centres undefined) | < 3.71 |
| CS(=O)(=O)NC1CCN(C(=O)CCC2CCCO2)CC1 (centres undefined) | < 3.71 |
| COCCN1CC(C(=O)N(C)Cc2ccc(Cl)s2)CC1=O (centres undefined) | < 3.71 |
| O=C(NS(=O)(=O)c1cccnc1)C1CC(c2ccccc2)=NO1 (centres undefined) | < 3.71 |
| Cc1ccn(-c2ccc(N3CCCN(Cc4ccccc4)CC3)nn2)n1 | < 3.71 |
| CCS(=O)(=O)N1CCc2c(COCc3ccncc3)cncc2C1 | < 3.71 |
| CC(C)n1c2ccccc2c2c1cc(C(=O)N(C)C)n2S(C)(=O)=O | < 3.71 |
| O=C(c1ccccc1)N1CCO[C@@H]2CN(Cc3ccc[nH]3)C[C@@H]2C1 | < 3.71 |
| CC(=O)N1CCc2nc(-c3ccc(F)cc3)nc(NC(C)C)c2CC1 | < 3.71 |
| CCCS(=O)(=O)N1C[C@@H](c2ccccc2)[C@@]2(CCNC2=O)C1 | < 3.71 |
| CCN1CCC2(CC1)CC(CC(=O)N(C)C)c1ccc(F)cc12 (centres undefined) | < 3.71 |
| CCOCc1cnc2n1CCN(C(=O)c1ccoc1C)C2C (centres undefined) | < 3.71 |
| COCC(=O)N1CCO[C@]2(CCC[C@H]2COC)C1 | < 3.71 |
| CN1CCN(Cc2cn3c(n2)CN(Cc2ccncc2)CC3)CC1 | < 3.71 |
| COCCn1c2c(ccc1=O)CC(NCc1cnn(C)c1)CC2 (centres undefined) | < 3.71 |
| CCC(=O)N1CCc2onc(CNS(C)(=O)=O)c2C1 | < 3.71 |
| CCn1c2c(ccc1=O)CC(NCc1cnn(C)c1)CC2 (centres undefined) | < 3.71 |
| CCOCc1cnc2n1CCN(C(=O)c1ccccc1)C2C (centres undefined) | < 3.71 |
| CCOCC1c2c(ncn2C)CCN1C(=O)c1cscn1 (centres undefined) | < 3.71 |
| c1ccc(CO[C@@H]2CN(Cc3ccoc3)[C@@H]3COC[C@@H]32)nc1 | < 3.71 |
| CCO[C@H]1CC[C@H]2[C@H]1OCCN2C(=O)COc1ccccc1 | < 3.71 |
| COCCC(=O)N1CCC2(COCc3cnc(-c4cccnc4)nc32)C1 (centres undefined) | < 3.71 |
| Fc1ccc(Cc2cnc(C3CCCN3)cn2)cc1 (centres undefined) | < 3.71 |
| O=C(NCc1cncc2c1CCN(CC1CCOC1)C2)c1ccco1 (centres undefined) | < 3.71 |
| CC(C)N(C)Cc1cncc2c1CCN(Cc1ccoc1)C2 | < 3.71 |

| SMILES | pIC50 |
| --- | --- |
| CN(C)Cc1cncc2c1CCN(Cc1ccoc1)C2 | < 3.71 |
| CN(Cc1cccnc1)Cc1cncc2c1CCN(c1ccccn1)C2 | < 3.71 |
| CCOC1CC2(CCN(Cc3nccn3C)CC2)C1 | < 3.71 |
| CN(C)CCN1C[C@@H]2CN(c3ccccc3)C[C@@H]2C1=O | < 3.71 |
| CC(C)N1CCO[C@@H]2CN(C(=O)NCc3ccccc3)CC[C@@H]2C1 | < 3.71 |
| CN1CCO[C@@H]2CN(C(=O)NCc3ccccc3)CC[C@@H]2C1 | < 3.71 |
| CCn1ncc2c1C(COC)N(C(=O)c1cscn1)CC2 (centres undefined) | < 3.71 |
| CN1CCCN(C(=O)c2ccnn2-c2ccc3ccccn23)CC1 | < 3.71 |
| O=C(c1ccco1)N1CCC2(CCCN(c3ncccn3)C2)C1 (centres undefined) | < 3.71 |
| O=C(COC[C@]12COC[C@H]1CN(C1CCC1)C2)N1CCCC1 | < 3.71 |
| COCCN1CCC12CCN(C(=O)c1ccc(C)nc1)C2 (centres undefined) | < 3.71 |
| CS(=O)(=O)CC(=O)N1C[C@H]2CCC[C@@]2(COc2ccccn2)C1 | < 3.71 |
| CCOC1COC2(CCN(CC3CC3)CC2)C1 (centres undefined) | < 3.71 |
| CCO[C@H]1CN(CC2CCOCC2)[C@@H]2CCCO[C@H]12 | < 3.71 |
| CS(=O)(=O)N1CCC2(CC1)CC(NCc1ccco1)c1ccccc12 (centres undefined) | < 3.71 |
| O=C(c1ccc(F)cc1)N1C[C@@H]2COC[C@]2(COc2cccnc2)C1 | < 3.71 |
| Cn1cccc1C(=O)N1CC2(CCN(C(=O)c3cccnc3)C2)C1 | < 3.71 |
| O=C([C@@H]1C[C@@H]2CCN(Cc3ccoc3)C[C@H]2O1)N1CCCC1 | < 3.71 |
| O=C(NC1CC1)[C@@H]1C[C@@H]2CCN(Cc3ccoc3)C[C@@H]2O1 | < 3.71 |
| c1cncc(CN2CCc3ncnc(C4CC4)c3CC2)c1 | < 3.71 |
| CN(C)CCO[C@H]1CN(CC2CC2)[C@@H]2CCCO[C@H]12 | < 3.71 |
| CS(=O)(=O)NCc1cn2c(n1)CN(Cc1cccnc1)CC2 | < 3.71 |
| O[C@@]1(c2ccccn2)CC[C@H]2CN(Cc3ccccn3)C[C@H]21 | < 3.71 |
| CC(C)OCc1nn(C)c2c1CN(Cc1cccs1)CC2 | < 3.71 |
